Test results reported in patent US12263155B2, “Combinations of monoamine oxidase inhibitors and serotonin receptor agonists and their therapeutic use” (Remedi, Inc., priority 2022, dated 2025).

Columns and labels:
[1] = molecular target: T1, MAO-A from human brain striatum (Homo sapiens, UniProt P21397); assay: Inhibitory kinetics of human brain striatum MAO-A; assay type: biochemical; settings: for Vmax: [14C]-5-HT substrate
T1 construct: homogenates of a post-mortem sample of the human brain striatum, served as the source of MAO-A enzymatic activity; from tissue; host or cells: human brain striatum, post-mortem (P2 mitochondrial-enriched fraction)
T1 sequence (P21397 1-527): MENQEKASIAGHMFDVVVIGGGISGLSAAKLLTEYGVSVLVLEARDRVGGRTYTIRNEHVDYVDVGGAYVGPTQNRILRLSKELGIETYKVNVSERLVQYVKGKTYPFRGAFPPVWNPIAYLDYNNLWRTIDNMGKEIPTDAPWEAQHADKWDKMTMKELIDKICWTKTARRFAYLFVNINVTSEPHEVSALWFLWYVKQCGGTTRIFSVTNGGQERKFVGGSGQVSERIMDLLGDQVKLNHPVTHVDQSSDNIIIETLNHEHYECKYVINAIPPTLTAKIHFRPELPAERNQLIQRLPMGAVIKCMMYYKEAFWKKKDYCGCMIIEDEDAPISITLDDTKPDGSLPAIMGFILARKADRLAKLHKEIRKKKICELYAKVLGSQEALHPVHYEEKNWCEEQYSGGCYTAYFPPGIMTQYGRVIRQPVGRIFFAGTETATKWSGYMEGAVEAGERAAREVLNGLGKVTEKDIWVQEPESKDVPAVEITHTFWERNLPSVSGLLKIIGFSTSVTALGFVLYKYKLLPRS
Experimental: Methods: The soluble extract of the mitochondrial enriched fraction (P2 pellet), which was prepared from homogenates of a post-mortem sample of the human brain striatum, served as the source of MAO-A enzymatic activity for this assay. After preparation, the P2 fraction was stored frozen until it was thawed for use on the day of assay. […] The MAO-A assay specificity was enhanced by inclusion of 0.1 μM deprenyl to prevent substrate oxidation by MAO-B. The CX157 competition for MAO-A activity was measured using either 1.0 nM or 5.0 nM CX157 against the 2 log unit concentration range of [^14C]-5-HT. The reference standard, RO 41-1049, was tested at 10 μM. Deprenyl (0.1 μM) was included in all MAO-A assays to prevent any potential for MAO-B mediated oxidation of the [^14C]-5-HT substrate. […] The MAO-A assays were performed using CX157 at concentrations of 0 nM (as a positive control), 1 nM and 5 nM. The Km and Vmax values were calculated from Lineweaver-Burke plots.

[2] = Phase I 14-day twice-daily pharmacokinetics; settings: for concentration at 12 h: C12h
Experimental: Methods: The study was a Phase I, single-center, randomized, parallel-group, multiple-dose, placebo-controlled, pharmacodynamic, pharmacokinetic and safety study in healthy volunteers. To obtain 24 enrolled subjects, screening procedures and inclusion/exclusion criteria were evaluated for 54 subjects during a variable screening period of up to 28 days. Once enrolled, subjects were randomized to either CX157 10 mg, 20 mg or 40 mg or matching placebo administered twice daily for 14 consecutive days.
Formulations: Each natural/transparent Licaps® size 0 hard gelatin capsule contains 10 mg CX157 in Labrasol™; each capsule is banded with a green gelatin band comprised of gelatin NF and polysorbate-80 NF. CX157 Liquid Filled Capsules are packaged in white, opaque, high density polyethylene (HDPE) bottles with screw-top polypropylene child resistant caps. Each bottle contains 30 capsules. CX157 Liquid Filled Capsules, 5 and 10 mg are stored long-term at controlled room temperature conditions [15-30° C. (59-86° F.)].

[3] = healthy volunteers, 10 mg twice daily, Day 1, mean
[4] = healthy volunteers, 10 mg twice daily, Day 14, mean
[5] = healthy volunteers, 20 mg twice daily, Day 1, mean
[6] = healthy volunteers, 20 mg twice daily, Day 14, mean
[7] = healthy volunteers, 40 mg twice daily, Day 1, mean
[8] = healthy volunteers, 40 mg twice daily, Day 14, mean, N = 4
[9] = human, plasma, oral, 10 mg, healthy volunteers, 10 mg twice daily, Day 1, mean
[10] = human, plasma, oral, 10 mg, healthy volunteers, 10 mg twice daily, Day 14, mean
[11] = human, plasma, oral, 20 mg, healthy volunteers, 20 mg twice daily, Day 1, mean
[12] = human, plasma, oral, 20 mg, healthy volunteers, 20 mg twice daily, Day 14, mean
[13] = human, plasma, oral, 40 mg, healthy volunteers, 40 mg twice daily, Day 1, mean
[14] = human, plasma, oral, 40 mg, healthy volunteers, 40 mg twice daily, Day 14, mean, N = 4

## O=S1(=O)c2ccc(F)cc2Oc2cc(OCC(F)(F)F)ccc21 [CX157, 3-fluoro-7(2,2,2-trifluorethoxy)phenoxathiine-10,10-dioxide]
[1]; 5.0 nM CX157
  increase of Km of the enzyme for [14C]-5-HT: 34.6%
[1]; 1 nM CX157
  Vmax: 50777
[1]; 5 nM CX157
  Vmax: 59161
[1]; human brain striatum
  mode of MAO-A inhibition: competitive inhibitor
[1]; human brain striatum homogenate, from plot of Km values
  Ki: 10 nM
[2]; [3]
  AUC0-12h/Dose: 380
  Cmax/Cmin: 31.4 ratio
  Cmax/Dose: 137
  Tmin: 10.7 h
[2]; [4]
  AUC0-12h/Dose: 753
  CSS: 8.1 ng/mL
  Cmax/Cmin: 6.64 ratio
  Cmax/Dose: 185
  Tmin: 12 h
[2]; [5]
  AUC0-12h/Dose: 312
  Cmax/Cmin: 36.7 ratio
  Cmax/Dose: 128
  Cmin: 1.13 ng/mL
  Tmin: 12 h
[2]; [6]
  AUC0-12h/Dose: 400
  Cmax/Cmin: 10.8 ratio
  Cmax/Dose: 104
  Cmin: 3.05 ng/mL
  Tmin: 12 h
[2]; healthy volunteers, 20 mg twice daily, Day 14, mean, N = 2
  % AUCextrap: 19.0c %
[2]; [7]
  AUC0-12h/Dose: 363
  Cmax/Cmin: 28.2 ratio
  Cmax/Dose: 136
  Cmin: 2.52 ng/mL
  Tmin: 12 h
[2]; [8]
  % AUCextrap: 16.5%
  AUC0-12h/Dose: 687
  CSS: 29.6 ng/mL
  Cmax/Cmin: 15.6 ratio
  Cmax/Dose: 320
  Cmin: 8.8 ng/mL
  Tmin: 12 h
[2]; human, plasma, oral
  half-life: 2000 to 2120 min
[2]; human, plasma, oral, 10 mg, AUC0-12h, healthy volunteers, 10 mg twice daily, Day 1, mean
  AUC(0-t): 50 ng·h/mL
[2]; human, plasma, oral, 10 mg, AUC0-12h, healthy volunteers, 10 mg twice daily, Day 14, mean
  AUC(0-t): 97 ng·h/mL
[2]; human, plasma, oral, 10 mg, AUClast, healthy volunteers, 10 mg twice daily, Day 14, mean
  AUC(0-t): 180 ng·h/mL
[2]; [9]
  concentration at 12 h: 0.63 ng/mL
  Cmax: 18.1 ng/mL
[2]; [10]
  concentration at 12 h: 3 ng/mL
  Cmax: 24.2 ng/mL
[2]; human, plasma, oral, 10 mg, Cmin, healthy volunteers, 10 mg twice daily, Day 1, mean
  concentration at 1 day: 0.6 ng/mL
[2]; human, plasma, oral, 10 mg, Cmin, healthy volunteers, 10 mg twice daily, Day 14, mean
  concentration at 14 day: 3 ng/mL
[2]; human, plasma, oral, 10 mg, healthy volunteers, 10 mg twice daily, Day 1, median
  Tmax: 1 h
[2]; human, plasma, oral, 10 mg, healthy volunteers, 10 mg twice daily, Day 14, median
  Tmax: 1 h
[2]; human, plasma, oral, 20 mg
  AUC(0-inf): 433 ng·h/mL
  half-life: 2000 min
[2]; human, plasma, oral, 20 mg, AUC0-12h, healthy volunteers, 20 mg twice daily, Day 1, mean
  AUC(0-t): 83.5 ng·h/mL
[2]; human, plasma, oral, 20 mg, AUC0-12h, healthy volunteers, 20 mg twice daily, Day 14, mean
  AUC(0-t): 115 ng·h/mL
[2]; human, plasma, oral, 20 mg, AUClast, healthy volunteers, 20 mg twice daily, Day 14, mean
  AUC(0-t): 191 ng·h/mL
[2]; [11]
  concentration at 12 h: 1.13 ng/mL
  Cmax: 32.3 ng/mL
[2]; [12]
  concentration at 12 h: 3.05 ng/mL
  Cmax: 30.1 ng/mL
[2]; human, plasma, oral, 20 mg, CSS, healthy volunteers, 20 mg twice daily, Day 14, mean
  concentration at 14 day: 9.6 ng/mL
[2]; human, plasma, oral, 20 mg, healthy volunteers, 20 mg twice daily, Day 1, median
  Tmax: 1.25 h
[2]; human, plasma, oral, 20 mg, healthy volunteers, 20 mg twice daily, Day 14, median
  Tmax: 1.5 h
[2]; human, plasma, oral, 40 mg
  AUC(0-inf): 712 ng·h/mL
  half-life: 2120 min
[2]; human, plasma, oral, 40 mg, AUC0-12h, healthy volunteers, 40 mg twice daily, Day 1, mean
  AUC(0-t): 186 ng·h/mL
[2]; human, plasma, oral, 40 mg, AUC0-12h, healthy volunteers, 40 mg twice daily, Day 14, mean, N = 4
  AUC(0-t): 355 ng·h/mL
[2]; human, plasma, oral, 40 mg, AUClast, healthy volunteers, 40 mg twice daily, Day 14, mean, N = 4
  AUC(0-t): 602 ng·h/mL
[2]; [13]
  concentration at 12 h: 2.52 ng/mL
  Cmax: 69.5 ng/mL
[2]; [14]
  concentration at 12 h: 8.8 ng/mL
  Cmax: 166 ± 179 ng/mL
[2]; human, plasma, oral, 40 mg, CSS, healthy volunteers, 40 mg twice daily, Day 14, mean, N = 4
  concentration at 14 day: 29.6 ± 19.6 ng/mL
[2]; human, plasma, oral, 40 mg, healthy volunteers, 40 mg twice daily, Day 1, median
  Tmax: 1.08 h
[2]; human, plasma, oral, 40 mg, healthy volunteers, 40 mg twice daily, Day 14, median, N = 4
  Tmax: 0.5 h
[2]; human, plasma, oral, 40 mg, mean AUC0-12h, 40 mg twice daily, Day 14
  AUC(0-t): 355 ± 235 ng·h/mL
